Source: US20040259806A1 (priority 2001, published 2004)
Read-outs that look alike come from different tables or passages of the source.

Key:
[1] = tested on: IL-4 and IFN-γ; test: INF-γ and IL-4 concentrations in blood serum; type: in vivo, mice
[2] = tested on: IL-4 and IFN-γ; test: IL-4 and INF-γ in spleen cell supernatants (Quantikine ELISA); type: in vivo, mice
Protocol: In RPMI-1640, spleen cells were diluted to a concentration of 10^7/ml with 10% fetal calf serum, 2 mM L-glutamine and 80 ìg/ml gentamycin. A 100 ìl cell suspension was added to each well of a 96-well culture plate and cytokine production was induced by Con A at a final concentration of 2.5 ìg/ml. A control well included RPMI-1640. For 24 hours, cells were incubated at 37° C. and humidified in 5% CO2. Following incubation, […] of supernatant was removed from each well and stored at −70° C.
IL-4 and INF-γ assays in Con A-stimulated spleen cell supernatants were also performed using Quantikine™ ELIZA kits R & D Systems, Minneapolis, Minn.) in accordance with kit instructions. Plates were coated with monoclonal antibodies to either IL-4 or IFN-γ and blocked. Standards and samples were subsequently added. The cells were incubated for 2 h and washed, following with the addition of a colorimetric substrate. After 30 minutes, the reaction was terminated and plates were read at 450 nm using a plate reader (Multiscan™ 3550, BioRad, Japan).

[3] = tested on: tuberculosis; test: SCV-07 therapy with continued traditional antituberculosis therapy in a patient (Example 2); type: in vivo, human
Text: A patient was admitted to the hospital with infiltrative tuberculosis, destructive phase in the upper lobe and 6th segment of the right lung and 4-5th segments of the left lung. Prior to SCV-07 therapy, symptoms of bacterial intoxication, dyspnea and rales above the damaged lobes were present. […] Large foci of lung destruction surrounded by perifocal inflammation were found in the lingual lobe of the left lung. […] During immunological response assays, a decrease of CD4+ and CD8+ subsets and low lymphocyte blasttransformation responses with PHA and PPD were detected.
After two months of traditional therapy a small improvement in the patient's condition was seen; however, the reoentgenological picture was without significant change and immune responses remained inhibited.
SCV-07 was injected intramuscularly at 0.1 mg, once per day, for 5 days with continued traditional antituberculosis therapy (isoniazid at 600 mg/day intravenously, pyrazinamid at 1500 mg/day per so, rifampicin at 450 mg/day per os, kanamycin at 1000 mg/day intramuscularly). The clinical improvement was significant. Sputum culture tests became negative, cavities closed and infiltrative foci resolved. […] A normal range is approximately 26-40%. […] Finally, the blasttransformation response with PHA increased from 29% to 40%. A normal level is approximately 50%.

[4] = tested on: blood leukocytes; type: in vivo, mice
[5] = tested on: M. bovis 8; type: in vivo, mice
[6] = tested on: spleen cells; test: Spleen cell proliferation (Con A, LPS, tuberculin) from treated infected mice; type: in vivo
Protocol: Spleens from mice were harvested aseptically, homogenized in RPMI-1640 medium (Biolot, Russia) and filtered through two layers of sterile gauze. Erythrocytes were lysed in 0.83% percent ammonium chloride solution after centrifugation of the homogenate. Spleen cells were washed twice with RPMI-1640 with 2 mM L-glutamine and […] gentamycin (Sigma, St. Louis, Mo.), then counted using a Goriaev hemocytometer.
(§1) Spleen cells and thymic cells were isolated as described above. In vitro, thymic cells were diluted to 10^7/ml in RPMI-1640 with 2 mM L-glutamine, 80 ìg/ml gentamycin and 4% heat-inactivated fetal calf serum (Sigma, St. Louis, Mo.). Spleen cells were diluted to 3×10^6/ml in RPMI-1640 with 2 mM L-glutamine, 80 ìg/ml gentamycin and 20% inactivated fetal calf serum. 0.5 ìg/ml Concanavalin A (Con A, Sigma, St. Louis, Mo.) was used to stimulate thymic cell proliferation. For spleen cell proliferation, 0.5 ìg/ml Con A, 10 ìg/ml lipopolysaccharide (Sigma, St. Louis, Mo.), and 50 ìg/ml tuberculin purified protein derivative (PPD) were utilized. The assay was carried out in 96-well plates and cell cultures were incubated for 72 hours, or 96 hours if tuberculin was used, at 37° C. in humidified 5% CO2, then pulsed with 5 ìl Ci/ml ^3H-thymidine overnight (approximately 16 h) and harvested on filters using a semi-automated harvester (Titertek™, Flow Laboratories, Norway). Filters were dried and proliferation calculated by ^3H-thymidine incorporation by counting samples in a liquid scintillation counter (LKB 1217 Racketa, Wallace, Sweden). Data was expressed in impulses per minute.

[7] = tested on: thymic cells; test: Thymic cell proliferation (3H-thymidine) from treated infected mice; type: in vivo
Protocol: Mice thymuses were collected aseptically, homogenized, suspended in RPMI-1640 medium and filtered through two layers of sterile gauze. Cell suspensions were washed twice in RPMI-1640 with 2 mM L-glutamine and […] gentamycin, then counted using a Goriaev hemocytometer.
as §1

[8] = after 10 days, Groups 4, 5, 6 and 7
[9] = SCV-07 im 0.1 mg once per day for 5 days with continued traditional therapy
[10] = 17 days after SCV-07 therapy, Groups 8 and 9 (0.01 ìg/kg ip and 1 ìg/kg po)
[11] = 24 days after end of therapy, Group 7 (0.1 ìg/kg ip) versus Group 3 (isoniazid control)

## N[C@H](CCC(=O)N[C@@H](Cc1c[nH]c2ccccc12)C(=O)O)C(=O)O [SCV-07, γ-D-glutamyl-L-tryptophan]
[1]; [8]
  IFN-γ levels in blood serum: increased
  IL-4 levels in blood serum: decreased
[1]; after 17 days, Groups 4, 5, 6, 7 and 8 (significantly in group 7 and 8)
  concentration of IFN-γ in blood serum: increased
[1]; after 17 days, Groups 5, 6 and 7
  IL-4 in blood serum: significantly decreased
[2]; 4 days after therapy, versus isoniazid control mice (Group 3)
  basal IFN-γ production: failed to differ
[2]; 10 days after therapy, Groups 4, 5, 6 and 8
  Con A stimulated INF-γ production: stimulation
[2]; 10 days after therapy, Groups 5, 6 and 7
  Con A stimulated IL-4 production: significantly decreased
[2]; 17 days after therapy, all mice
  basal IFN-γ production: increase
[2]; end of the experiment, only Group 6 (1 ìg/kg ip, 10 injections)
  basal INF-γ production: maintenance of this increase
[2]; mouse, in vivo
  basal IL-4 production: No significant changes
[2]; ten days after therapy, Groups 5, 6 and 7
  basal IFN-γ production: significant elevation
[3]; [9]
  Immunological responses: close to normal
  Sputum culture tests: negative
  cavities: closed
  infiltrative foci: resolved
[3]; SCV-07 intramuscularly 0.1 mg once per day for 5 days with continued traditional therapy
  clinical improvement: significant
[3]; post SCV-07, increased from 1.011×10^9/l
  CD3+ lymphocytes: 1.441e+09 L⁻¹
[3]; post SCV-07, increased from 12%, normal range approximately 26-40%
  CD8+ numbers: 21%
[3]; post SCV-07, increased from 29%, normal level approximately 50%
  blasttransformation response with PHA: 40%
[3]; post SCV-07 treatment
  Lymphocyte functional abilities: markedly elevated
[4]; 4 days after therapy
  Significant changes in blood lymphocytes and neutrophilic granulocytes: not observed
[4]; 10 days after therapy, Groups 6, 7, 8 and 9 compared with Group 3, the isoniazid control
  monocyte levels: decrease
[4]; [10]
  lymphocyte numbers: increase
  percent of neutrophils: significant decrease
[5]; 5 daily injections of 0.01 ìg/kg
  M. bovis growth in spleen culture: decreases
[5]; 10 days and 17 days after termination of treatment, groups other than Group 7
  differences between the control and experimental groups: lacked significance
[5]; [11]
  growth of M bovis cultured from spleens: 200±0 CFU
  lung weight index: 1.38±0.06
  spleen weight index: 1.59±0.25
[5]; 24 days after end of therapy, Group 7 (SCV-07 0.1 ìg/kg ip, 5 injections, with isoniazid) versus Group 3 (isoniazid control)
  increase in body weight: 30.8%
[5]; Group 5 (1 ìg/kg ip, 5 injections), 24 days after treatment
  M. bovis growth in spleen cultures, significant decrease: this trend did not occur
[5]; Group 6 (1 ìg/kg ip, 10 injections), 24 days after treatment, 275±14.1 CFU in the control
  M. bovis growth in spleen cultures: 190±21.5 CFU
[5]; Group 7 (0.1 ìg/kg ip), 4 days after therapy
  lung damage index, difference to isoniazid control (Group 3): Significant differences
[5]; Group 7 (0.1 ìg/kg ip), 10 days and 17 days after termination of treatment
  lung damage index: considerably differed from the control
[5]; Groups 5, 7, 8 and 9 (1, 0.1, 0.01 ìg/kg ip and 1 ìg/kg po), 4 days after therapy
  lung damage index, difference to untreated controls (Group 2): significant differences
[5]; all doses, 4 days after the end of 5 days of therapy (Day 28 of infection)
  lung damage index: decreased
[6]; after 24 days, Group 6 (1 ìg/kg, 10 injections ip)
  spleen cell proliferative response with LPS: did not differ from uninfected mice
[6]; after 24 days, Groups 6 and 7 (1 ìg/kg, 10 injections ip and 0.1 ìg/kg ip)
  spleen cell proliferative response with Con A: did not differ from uninfected mice
[6]; later than 4 days of therapy, Group 6 (1 ìg/kg ip, 10 injections)
  spleen cell proliferative response to tuberculin: significantly higher than the control
[7]; SCV-07 treated (Groups 4 to 9) versus control (Groups 1 to 3)
  basal thymic cell proliferation: No significant differences
[7]; after 4 days, Group 7 (0.1 ìg/kg ip) in comparison to Group 3 (isoniazid control)
  Con A stimulated thymic cell proliferation: significantly higher
[7]; day 17, Groups 7 and 8 (0.1 and 0.01 ìg/kg ip)
  Con A stimulated thymic cell proliferation response: essentially the same response as uninfected mice
[7]; day 24, Groups 6, 7 and 8 (1 ìg/kg 10 injections ip, 0.1 and 0.01 ìg/kg ip)
  Con A stimulated thymic cell proliferation: higher numbers than the isoniazid control
